Test results published in patent publication US20240343717A1, “MICROBIOCIDAL PYRAZOLE DERIVATIVES” (SYNGENTA CROP PROTECTION AG, priority 2021, published 2024).

Columns and labels:
[1] = tested on: Botryotinia fuckeliana (Botrytis cinerea); experiment: Botryotinia fuckeliana (Botrytis cinerea) / liquid culture (gray mould); format: cell-based; conditions: growth inhibition photometrically 3-4 days after application, read-out: control of Botryotinia fuckeliana
How it was run: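 Conidia suspended in Vogels broth and added to compound dispensed from DMSO. Incubated at 24°C, with growth inhibition measured photometrically 3–4 days later.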

[2] = tested on: Glomerella lagenarium (Colletotrichum lagenarium); experiment: Glomerella lagenarium (Colletotrichum lagenarium) / liquid culture (anthracnose); format: cell-based; conditions: Colletotrichum orbiculare, growth inhibition photometrically 3-4 days after application, read-out: control of Glomerella lagenarium
How it was run: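 Cryo-stored conidia in potato dextrose broth were added to test compound in DMSO. Plates were incubated at 24° C, and growth inhibition was read photometrically 3-4 days after application.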

Fusarium culmorum [3] = experiment: microbe, parasite or virus in culture; format: cell-based; conditions: read-out: control of Fusarium culmorum
[4] = tested on: Monographella nivalis (Microdochium nivale); experiment: Monographella nivalis (Microdochium nivale) / liquid culture (foot rot cereals); format: cell-based; conditions: growth inhibition photometrically 4-5 days after application, read-out: control of Monographella nivalis
How it was run: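 Fungal conidia mixed directly into potato dextrose broth and added to test compound delivered in DMSO. Incubated at 24° C; growth inhibition read photometrically 4-5 days after application.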

[5] = tested on: Mycosphaerella arachidis (Cercospora arachidicola); experiment: Mycosphaerella arachidis (Cercospora arachidicola) / liquid culture (early leaf spot); format: cell-based; conditions: growth inhibition photometrically 4-5 days after application, read-out: control of Mycosphaerella arachidis
How it was run: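 Spores taken straight from cryostorage are suspended in potato dextrose broth and added to test compound in DMSO. Plates are incubated at 24° C. Growth inhibition is scored photometrically 4-5 days after application.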

[6] = tested on: Mycosphaerella graminicola (Septoria tritici); experiment: Mycosphaerella graminicola (Septoria tritici) / liquid culture (Septoria blotch); format: cell-based; conditions: Zymoseptoria tritici, growth inhibition photometrically 4-5 days after application, read-out: control of Mycosphaerella graminicola
How it was run: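 Conidia suspended in potato dextrose broth and added to test compound supplied in DMSO in 96-well plates. Incubated at 24 °C, and growth inhibition read photometrically 4-5 days after application.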

Alternaria solani = Alternaria solani / tomato / leaf disc (early blight); format: in vivo; conditions: foliar, tomato leaf disks, sprayed 2 days before inoculation, compared to untreated control
Protocol: Example B1: Alternaria solani/Tomato/Leaf Disc (Early Blight) Tomato leaf disks cv. Baby are placed on agar in multiwell plates (24-well format) and sprayed with the formulated test compound diluted in water. The leaf disks are inoculated with a spore suspension of the fungus 2 days after application. The inoculated leaf disks are incubated at 23° C./21° C.

[7] = tested on: Blumeria graminis f. sp. tritici (Erysiphe graminis f. sp. tritici); experiment: Blumeria graminis f. sp. tritici / wheat / leaf disc preventative (powdery mildew on wheat); format: in vivo; conditions: foliar, wheat leaf segments, inoculated 1 day after application
How it was run: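 Wheat cv. Kanzler leaf segments on agar sprayed with formulated compound in water, inoculated 1 day later by shaking mildew-infected plants overhead. Incubated at 20° C, 60% rh, 24 h dark then 12 h light/12 h dark. Percent disease control versus untreated scored 6-8 days after application.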

Pyrenophora teres = Pyrenophora teres / barley / leaf disc preventative (net blotch); format: in vivo; conditions: foliar, barley leaf segments, inoculated 2 days after application
How it was run: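 Barley cv. Hasso leaf segments on agar sprayed with formulated compound, inoculated with spores 2 days later. Incubated at 20 °C, 65% rh, 12 h light/dark; disease control versus untreated assessed 5–7 days after application.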

Sclerotinia sclerotiorum = Sclerotinia sclerotiorum / liquid culture (cottony rot); format: cell-based; conditions: growth inhibition photometrically 3-4 days after application, read-out: control of Sclerotinia sclerotiorum
Protocol: Example B15: Sclerotinia sclerotiorum/Liquid Culture (Cottony Rot) Mycelia fragments of a newly grown liquid culture of the fungus are directly mixed into nutrient broth (PDB potato dextrose broth). After placing a (DMSO) solution of test compound into a microtiter plate (96-well format) the nutrient broth containing the fungal material is added. The test plates are incubated at 24° C. and the inhibition of growth is determined photometrically 3-4 days after application.

[8] = tested on: Gibberella zeae (Fusarium graminearum); experiment: whole plant or invertebrate; format: in vivo; conditions: in Triticum aestivum, read-out: control of Gibberella zeae
[9] = tested on: Phaeosphaeria nodorum (Septoria nodorum); experiment: Phaeosphaeria nodorum (Septoria nodorum) / wheat / leaf disc preventative (glume blotch); format: in vivo; conditions: Parastagonospora nodorum, foliar, wheat leaf segments, inoculated 2 days after application
Protocol: Example B8: Phaeosphaeria nodorum (Septoria nodorum)/Wheat/Leaf Disc Preventative (Glume Blotch) Wheat leaf segments cv. Kanzler are placed on agar in a multiwell plate (24-well format) and sprayed with the formulated test compound diluted in water. The leaf disks are inoculated with a spore suspension of the fungus 2 days after application. The inoculated test leaf disks are incubated at 20° C. and 75% rh under a light regime of 12 h light/12 h darkness in a climate cabinet and the activity of a compound is assessed as percent disease control compared to untreated when an appropriate level of disease damage appears in untreated check leaf disks (5-7 days after application).

Fusarium culmorum [10] = experiment: whole plant or invertebrate; format: in vivo; conditions: in Triticum aestivum, read-out: control of Fusarium culmorum

SMILES | inhibition of growth at 20 ppm [1] | inhibition of growth at 20 ppm [2] | inhibition of growth at 20 ppm (Fusarium culmorum [3]) | inhibition of growth at 20 ppm [4] | inhibition of growth at 20 ppm [5] | inhibition of growth at 20 ppm [6] | melting point | pest or weed control at 200 ppm (Alternaria solani) | pest or weed control at 200 ppm [7] | pest or weed control at 200 ppm (Pyrenophora teres) | inhibition of growth at 20 ppm (Sclerotinia sclerotiorum) | pest or weed control at 200 ppm [8] | pest or weed control at 200 ppm [9] | pest or weed control at 200 ppm (Fusarium culmorum [10])
Cn1cc(C(C)(CNC(=O)c2nnc(-c3ccc(F)cc3F)s2)c2cccc(C#N)n2)cn1 (stereo not drawn) [Compound P-115, N-[2-(6-cyano-2-pyridyl)-2-(1-methylpyrazol-4-yl)propyl]-5-(2,4-difluorophenyl)-1,3,4-thiadiazole-2-carboxamide] | ≥ 80% | ≥ 80% | ≥ 80% | ≥ 80% | ≥ 80% | ≥ 80% | 169 to 170 °C |  |  |  |  |  |  | 
Cn1cc(C(C)(CNC(=O)c2nnc(-c3ccc(F)cc3F)s2)c2cccc(C(F)(F)F)n2)cn1 (stereo not drawn) [Compound P-107, 5-(2,4-difluorophenyl)-N-[2-(1-methylpyrazol-4-yl)-2-[6-(trifluoromethyl)-2-pyridyl]propyl]-1,3,4-thiadiazole-2-carboxamide] | ≥ 80% | ≥ 80% | ≥ 80% | ≥ 80% | ≥ 80% | ≥ 80% | 162 to 163 °C | ≥ 80% | ≥ 80% | ≥ 80% | ≥ 80% |  |  | 
Cn1cc(C(C)(CNC(=O)c2cc(-c3ccc(F)cc3F)on2)c2cccc(Br)n2)cn1 (stereo not drawn) [Compound P-24, N-[2-(6-bromo-2-pyridyl)-2-(1-methylpyrazol-4-yl)propyl]-5-(2,4-difluorophenyl) isoxazole-3-carboxamide] | ≥ 80% | ≥ 80% | ≥ 80% | ≥ 80% | ≥ 80% | ≥ 80% | 141 to 143 °C | ≥ 80% | ≥ 80% | ≥ 80% | ≥ 80% | ≥ 80% | ≥ 80% | 
Cc1cccc(C(C)(CNC(=O)c2nnc(-c3ccc(F)cc3F)s2)c2cnn(C)c2Cl)n1 (stereo not drawn) [Compound P-82, N-[2-(5-chloro-1-methyl-pyrazol-4-yl)-2-(6-methyl-2-pyridyl)propyl]-5-(2,4-difluorophenyl)-1,3,4-thiadiazole-2-carboxamide] | ≥ 80% | ≥ 80% | ≥ 80% | ≥ 80% | ≥ 80% | ≥ 80% |  | ≥ 80% | ≥ 80% | ≥ 80% | ≥ 80% | ≥ 80% | ≥ 80% | 
CCC(CNC(=O)c1cc(-c2ccc(F)cc2F)on1)(c1cnn(C)c1)c1cccc(Cl)n1 (stereo not drawn) [Compound P-31, N-[2-(6-chloro-2-pyridyl)-2-(1-methylpyrazol-4-yl)butyl]-5-(2,4-difluorophenyl) isoxazole-3-carboxamide] | ≥ 80% | ≥ 80% | ≥ 80% | ≥ 80% | ≥ 80% | ≥ 80% |  | ≥ 80% | ≥ 80% | ≥ 80% | ≥ 80% |  | ≥ 80% | ≥ 80%
Cn1cc(C(C)(CNC(=O)c2nnc(-c3ccc(F)cc3F)s2)c2cccc(Cl)n2)cn1 (stereo not drawn) [Compound P-9, N-[2-(6-chloro-2-pyridyl)-2-(1-methylpyrazol-4-yl)propyl]-5-(2,4-difluorophenyl)-1,3,4-thiadiazole-2-carboxamide] | ≥ 80% | ≥ 80% | ≥ 80% | ≥ 80% | ≥ 80% | ≥ 80% |  | ≥ 80% | ≥ 80% | ≥ 80% | ≥ 80% | ≥ 80% | ≥ 80% | 
Cn1cc(C(C)(CNC(=O)c2cc(C3CCCC3)on2)c2cccc(Cl)n2)cn1 (stereo not drawn) [Compound P-80, N-[2-(6-chloro-2-pyridyl)-2-(1-methylpyrazol-4-yl)propyl]-5-cyclopentyl-isoxazole-3-carboxamide] | ≥ 80% | ≥ 80% | ≥ 80% | ≥ 80% | ≥ 80% | ≥ 80% |  | ≥ 80% |  | ≥ 80% |  | ≥ 80% |  | 
Cn1ncc(C(CNC(=O)c2nnc(-c3ccc(F)cc3F)s2)c2cccc(Cl)n2)c1Cl (stereo not drawn) [Compound P-116, N-[2-(5-chloro-1-methyl-pyrazol-4-yl)-2-(6-chloro-2-pyridyl)ethyl]-5-(2,4-difluorophenyl)-1,3,4-thiadiazole-2-carboxamide] | ≥ 80% | ≥ 80% | ≥ 80% | ≥ 80% | ≥ 80% | ≥ 80% | 150 to 151 °C |  |  |  |  |  |  | 
Cn1cc([C@@](C)(CNC(=O)c2cc(-c3ccc(F)cc3F)on2)c2cccc(Cl)n2)cn1 [Compound P-30, N-[(2S)-2-(6-chloro-2-pyridyl)-2-(1-methylpyrazol-4-yl)propyl]-5-(2,4-difluorophenyl) isoxazole-3-carboxamide] |  |  |  |  |  |  |  |  |  |  |  | ≥ 80% |  | 
Cn1ncc(C(CNC(=O)c2cc(-c3ccc(F)cc3F)on2)c2cccc(Cl)n2)c1Cl (stereo not drawn) [Compound P-69, N-[2-(5-chloro-1-methyl-pyrazol-4-yl)-2-(6-chloro-2-pyridyl)ethyl]-5-(2,4-difluorophenyl) isoxazole-3-carboxamide] | ≥ 80% | ≥ 80% |  | ≥ 80% | ≥ 80% | ≥ 80% | 113 to 115 °C |  | ≥ 80% | ≥ 80% |  |  | ≥ 80% | 
Cn1cc(C(C)(CNC(=O)c2cc(-c3ccc(F)cc3F)on2)c2cccc(C(F)(F)F)n2)cn1 (stereo not drawn) [Compound P-106, 5-(2,4-difluorophenyl)-N-[2-(1-methylpyrazol-4-yl)-2-[6-(trifluoromethyl)-2-pyridyl]propyl] isoxazole-3-carboxamide] | ≥ 80% | ≥ 80% | ≥ 80% | ≥ 80% | ≥ 80% | ≥ 80% | 160 to 165 °C | ≥ 80% |  |  | ≥ 80% |  |  | 
